Measured values as given in patent publication US6656459B2, “Compositions of non-ionic block copolymers to treat autoimmune and inflammatory diseases, and to reduce graft/implantation, and methods of use thereof” (priority 2000, dated 2003).

System: Collagen-immunized DBA/I mice
Test: collagen-induced arthritis (CIA), frequency and severity of RA symptoms
Assay type: in vivo
Description: The anti-RA efficacy of SP1018R (200 μl of F127 and L61 in a ratio of 8:1 at a concentration of 2.25% ) was compared to that of MTX that was given at a human equivalent dose (0.1 mg/kg i.v.), both drugs were given on day 30 and day 37 after the first immunization with collagen. For induction of severe CIA, mice were primed with 500 μl pristane and immunized at day 14 and 21 by administration of 100 μg colagen type II in Freund's complete adjuvant. The control (placebo) and the treated animals were evaluated for RA severity. RA was graded semi-quantitatively on a scale of 0-4 for each paw: 0=no changes; 0.5=significant swelling and redness on one digit; 1=swelling and erythema of 2 digits; 2=mild swelling and erythema of the limb or swelling of more than 2 digits; 3=marked swelling and erythema of the limb; and 4=maximal swelling and redness of the limb and later, ankylosis. […] Rev. Immunol.
The data shown below represent the maximal frequency (%) of animals having developed symptoms of RA and the frequency of animals still having the symptoms of RA at the end of the study. All Pluronics used in all examples were purchased from BASF Co.
Frequency of RA development at various time points during the course of RA development

[1] = Study NG256, given twice (2X; day 30 and day 37)

## CN(Cc1cnc2nc(N)nc(N)c2n1)c1ccc(C(=O)N[C@@H](CCC(=O)O)C(=O)O)cc1 [MTX, methotrexate]
SP1018R 200 μl, MTX 0.1 mg/kg i.v., day 30 and day 37 after first immunization
  RA severity, clinical disease symptoms (scale of 0-4 for each paw): slight therapeutic effect
[1]
  frequency of animals still having the symptoms of RA at the end of the study: 100%
  maximal frequency (%) of animals having developed symptoms of RA: MTX—100%
